We go through 13 compounds from PubChem BioAssay (NCI).

Structures are written as SMILES.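 Each compound was tested at five concentrations against cells in 96-well plates for 48 hours. The concentration for 50% growth inhibition is given as GI50. TGI marks complete inhibition of growth.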

Some test systems named below: A549 NSCLC; DU-145 prostate; HL-60(TB) leukemia; HOP-62 NSCLC; MCF7 breast; MDA-MB-231 breast; OVCAR-8 ovarian; SW-620 colon; UACC-62 melanoma; UO-31 renal.
What all share (experiment): NCI tumour cell line growth inhibition, 48 h

As to `CC1=C(C(=O)OCCc2ccc([N+](=O)[O-])cc2)C(c2ccccc2[N+](=O)[O-])C(C(=O)OC(C)C)=C(C)N1` (stereo not given), the TGI was more than 100 µM in the assay with A549 NSCLC; more than 100 µM in the assay with DU-145 prostate; 8.48 µM with HL-60(TB) leukemia; more than 100 µM in the assay on HOP-62 NSCLC; more than 100 µM with MCF7 breast; more than 100 µM with MDA-MB-231 breast. Moreover, the TGI is more than 100 µM with OVCAR-8 ovarian, more than 100 µM in the assay with SW-620 colon, 58.4 µM in the assay on UACC-62 melanoma and more than 100 µM in the assay on UO-31 renal.

Take `C#CCNC(Cc1cnc[nH]1)C(=O)O` (stereo not given): the TGI in the assay with A549 NSCLC, with DU-145 prostate, in the assay with HL-60(TB) leukemia, in the assay on HOP-62 NSCLC, in the assay on MCF7 breast and with MDA-MB-231 breast was more than 100 µM each time. The TGI with OVCAR-8 ovarian, in the assay on SW-620 colon, in the assay with UACC-62 melanoma and in the assay on UO-31 renal was more than 100 µM in each case.

As to `CC(CCC(=O)O)[C@H]1CCC2[C@H]3C(CC[C@@]21C)[C@@]1(C)CCC(O)C[C@H]1C[C@@H]3O` (stereo not given in full), the TGI in the assay with A549 NSCLC, in the assay with DU-145 prostate, in the assay with HL-60(TB) leukemia, with HOP-62 NSCLC, in the assay with MCF7 breast and in the assay with MDA-MB-231 breast was more than 100 µM each time. Further, the TGI in the assay with OVCAR-8 ovarian, in the assay with SW-620 colon, in the assay with UACC-62 melanoma and with UO-31 renal was more than 100 µM in each case.

Turning to `OC1CCCC1C(O)(C(F)(F)F)C(F)(F)F` (stereo not given), the TGI in the assay with A549 NSCLC, in the assay on DU-145 prostate, in the assay with HL-60(TB) leukemia, with HOP-62 NSCLC, in the assay on MCF7 breast and in the assay on MDA-MB-231 breast was more than 100 µM each time. For the same compound, the TGI with OVCAR-8 ovarian, in the assay on SW-620 colon, in the assay with UACC-62 melanoma and with UO-31 renal was more than 100 µM throughout.

For `CNC(=O)CCC(NC(C)=O)C(=O)NC(Cc1ccc(NC(=O)CCCCC(C)=O)cc1)C(=O)NC(CCC(=O)NC)C(=O)NC` (stereo not given), the TGI in the assay on A549 NSCLC, in the assay with DU-145 prostate, in the assay with HL-60(TB) leukemia, in the assay on HOP-62 NSCLC, with MCF7 breast and in the assay on MDA-MB-231 breast was more than 100 µM throughout. Moreover, the TGI with OVCAR-8 ovarian, in the assay on SW-620 colon, with UACC-62 melanoma and with UO-31 renal was more than 100 µM each time.

In the case of `N#Cc1c(NC(=O)c2ccccc2)sc2c1CCC(=O)C2`, the GI50 in the assay on A549 NSCLC was 6.7 µM; in the assay on DU-145 prostate, 2.98 µM; with HL-60(TB) leukemia, 0.309 µM; in the assay on HOP-62 NSCLC it was 2.55 µM; in the assay with MCF7 breast, 0.64 µM; in the assay on MDA-MB-231 breast, 1.99 µM. Moreover, the GI50 with OVCAR-8 ovarian was 1.27 µM; in the assay with SW-620 colon, 0.524 µM; in the assay with UACC-62 melanoma, 0.404 µM; in the assay with UO-31 renal it was 1.05 µM. Moreover, the TGI in the assay on A549 NSCLC is more than 100 µM; in the assay with DU-145 prostate it was more than 100 µM; in the assay with HL-60(TB) leukemia, 2.96 µM; with HOP-62 NSCLC, more than 100 µM; in the assay with MCF7 breast it was 7.83 µM; in the assay on MDA-MB-231 breast, 6.28 µM. Moreover, the TGI in the assay on OVCAR-8 ovarian came out at 45 µM; in the assay on SW-620 colon, 3.69 µM; with UACC-62 melanoma it was 1.93 µM; in the assay on UO-31 renal, 2.24 µM.

For the compound `O=C(O)/C=C(/CC(=O)O)C(=O)O`, the TGI with A549 NSCLC was found to be 43.2 µM; in the assay on DU-145 prostate it was 45.7 µM; with HL-60(TB) leukemia, 42.9 µM; in the assay on HOP-62 NSCLC, 40.1 µM; with MCF7 breast, 39.3 µM; in the assay on MDA-MB-231 breast it was 48 µM. Moreover, the TGI in the assay with OVCAR-8 ovarian is 46.6 µM; in the assay with SW-620 colon, 39.8 µM; with UACC-62 melanoma, 36.7 µM; with UO-31 renal, 33.7 µM.

As to `O=C1NC(=S)N/C1=C/c1ccccc1O`, the TGI in the assay with A549 NSCLC, in the assay on DU-145 prostate, in the assay on HL-60(TB) leukemia, in the assay with HOP-62 NSCLC, in the assay on MCF7 breast and in the assay on MDA-MB-231 breast was more than 100 µM each time. The TGI in the assay on OVCAR-8 ovarian, with SW-620 colon, with UACC-62 melanoma and in the assay with UO-31 renal was more than 100 µM in each case.

As to `O=C(C1=C(C(=O)c2ccccc2)SC2(S1)C(C(=O)c1ccccc1)=C(C(=O)c1ccccc1)Sc1c2ssc1=O)c1ccccc1`, the TGI in the assay with A549 NSCLC was more than 100 µM; in the assay on DU-145 prostate, more than 100 µM; in the assay on HL-60(TB) leukemia it was 69.8 µM; in the assay on HOP-62 NSCLC, more than 100 µM; in the assay on MCF7 breast it was more than 100 µM; in the assay on MDA-MB-231 breast, more than 100 µM. Moreover, the TGI is more than 100 µM in the assay with OVCAR-8 ovarian, more than 100 µM in the assay with SW-620 colon, 44.9 µM in the assay with UACC-62 melanoma and more than 100 µM in the assay on UO-31 renal.

On to `Cc1nnc2cc(C(=O)O)c3ccccc3n2c1=O`, for which the TGI in the assay with A549 NSCLC, with DU-145 prostate, in the assay on HL-60(TB) leukemia, in the assay with HOP-62 NSCLC, in the assay on MCF7 breast and in the assay with MDA-MB-231 breast was more than 10 µM throughout. Moreover, the TGI with OVCAR-8 ovarian, in the assay on SW-620 colon, in the assay with UACC-62 melanoma and with UO-31 renal was more than 10 µM throughout.

Take `O=C(N/N=C\c1cccc2ccccc12)Nc1ccc([N+](=O)[O-])cc1`: the TGI is more than 100 µM with A549 NSCLC; more than 60.7 µM in the assay with DU-145 prostate; more than 100 µM in the assay on HL-60(TB) leukemia; 59.2 µM with HOP-62 NSCLC; more than 100 µM with MCF7 breast; more than 100 µM with MDA-MB-231 breast. In addition, the TGI in the assay on OVCAR-8 ovarian is more than 53.5 µM; with SW-620 colon, more than 100 µM; in the assay on UACC-62 melanoma, more than 68.5 µM; in the assay with UO-31 renal, more than 61.8 µM.

Consider `CCc1nnc(-n2c(C)nc3cc(Cl)ccc3c2=O)s1`, for which the TGI with A549 NSCLC, in the assay with DU-145 prostate, in the assay on HL-60(TB) leukemia, in the assay with HOP-62 NSCLC, in the assay on MCF7 breast and in the assay on MDA-MB-231 breast was more than 100 µM in each case. Besides, the TGI in the assay with OVCAR-8 ovarian was more than 100 µM; in the assay with SW-620 colon, more than 100 µM; in the assay on UACC-62 melanoma, 61.7 µM; with UO-31 renal, more than 100 µM.

As to `CC1(C)COC(c2cccc(C3=NC(C)(C)CO3)c2Br)=N1`, the TGI in the assay with A549 NSCLC, in the assay on DU-145 prostate, with HL-60(TB) leukemia, with HOP-62 NSCLC, in the assay with MCF7 breast and in the assay with MDA-MB-231 breast was more than 100 µM each time. In addition, the TGI with OVCAR-8 ovarian, in the assay with SW-620 colon, in the assay with UACC-62 melanoma and with UO-31 renal was more than 100 µM each time.
